Data on 34 compounds can be found in patent US20250101034A1, “COMPOSITIONS USEFUL FOR MODULATING SPLICING” (SKYHAWK THERAPEUTICS, INC., priority 2021, published 2025).

For orientation: IC50 means the concentration needed to halve the response being measured.

Experiment [1] relates to ATXN3 transcripts containing exon 4 (E4E5). As to the kind of experiment: ATXN3 quantitative splicing assay (qPCR, SK-N-MC cells). Type of experiment: cell-based. The note with it: Homo sapiens, 24 h treatment, qPCR E4E5 primers/probe, read-out: ATXN3 Potency - Splicing E4E5 IC50. The method, boiled down:
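SK-N-MC cells treated 24 h with compound (30 μM to 0.6 nM, 0.3% DMSO) 24 h after plating; lysates reverse-transcribed and analysed by TaqMan qPCR. E4E5 primers/probe detect exon 4–containing transcripts; E8E9 measures total ATXN3, alongside exon 4–skipped transcript detection.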
For orientation: Real-time PCR tracks product formation cycle by cycle.

Experiment [2] deals with total ATXN3 protein. The experiment is described as follows: ATXN3 total protein assay (MSD, SK-N-MC cells). The note with it: 48 hours incubation, read-out: ATXN3 Potency - Protein IC50. Type of experiment: cell-based, Human. The method, boiled down:
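SK-N-MC human neuroblastoma cells treated with compound (30 μM to 0.6 nM) for 48 h, then lysed with protease inhibitors. Total ATXN3 measured by MSD sandwich immunoassay (mouse capture, rabbit detection antibodies, anti-rabbit MSD-ST secondary), quantified against recombinant ATXN3 standards.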

On to `Cc1c(C[C@H](C)N)sc2c(NCc3ccc(F)s3)cnnc12` [Compound 16, 6-[(2S)-2-aminopropyl]-N-[(5-fluorothiophen-2-yl)methyl]-7-methylthieno[3,2-c]pyridazin-4-amine], for which the IC50 in experiment [1] and in experiment [2] was 0.501 to 5 µM each time.

On to `Cc1c(CC2CNC2)sc2c(NCc3cccs3)cnnc12` [Compound 73, 6-[(azetidin-3-yl)methyl]-7-methyl-N-[(thiophen-2-yl)methyl]thieno[3,2-c]pyridazin-4-amine], for which the IC50 in experiment [1] and in experiment [2] was 10 to 40 µM each time.

In the case of `Cc1c([C@H](O)[C@H](C)N)sc2c(NCc3cccs3)cnnc12` (single isomer, unassigned) [Compound 41], the IC50 in experiment [1] and in experiment [2] was 10 to 40 µM in each case.

Consider `Cc1csc2c(NCc3cccs3)c(Br)nnc12` [Compound 87, 3-bromo-7-methyl-N-[(thiophen-2-yl)methyl]thieno[3,2-c]pyridazin-4-amine], for which the IC50 in experiment [1] and in experiment [2] was 10 to 40 µM throughout.

As to `C[C@H](N)Cc1sc2c(NCc3ccco3)cnnc2c1Cl` [Compound 101, 6-[(2S)-2-aminopropyl]-7-chloro-N-[(furan-2-yl)methyl]thieno[3,2-c]pyridazin-4-amine], the IC50 in experiment [1] and in experiment [2] was 0.101 to 0.5 µM throughout.

As to `Cc1c(C[C@@H](N)CC(F)F)sc2c(NCc3cccs3)cnnc12` [Compound 28, 6-[(2S)-2-amino-4,4-difluorobutyl]-7-methyl-N-[(thiophen-2-yl)methyl]thieno[3,2-c]pyridazin-4-amine], the IC50 in experiment [1] and in experiment [2] was 10 to 40 µM each time.

As for `Cc1nnc2c(C)csc2c1NCc1cccs1` [Compound 57, 3,7-dimethyl-N-[(thiophen-2-yl)methyl]thieno[3,2-c]pyridazin-4-amine], the IC50 in experiment [1] and in experiment [2] was 10 to 40 µM each time.

For the compound `Cc1c(C[C@@H](C)N)sc2c(NCc3cccs3)cnnc12` [Compound 49, 6-[(2R)-2-aminopropyl]-7-methyl-N-[(thiophen-2-yl)methyl]thieno[3,2-c]pyridazin-4-amine], the IC50 in experiment [1] and in experiment [2] was 10 to 40 µM in each case.

With `COC[C@H](N)Cc1sc2c(NCc3cccs3)cnnc2c1Br` [Compound 136, 6-[(2R)-2-amino-3-methoxypropyl]-7-bromo-N-[(thiophen-2-yl)methyl]thieno[3,2-c]pyridazin-4-amine], the IC50 in experiment [1] and in experiment [2] was 0.101 to 0.5 µM throughout.

As for `Cc1c(C[C@H](C)N)sc2c(NCc3sccc3F)cnnc12` [Compound 10, 6-[(2S)-2-aminopropyl]-N-[(3-fluorothiophen-2-yl)methyl]-7-methylthieno[3,2-c]pyridazin-4-amine], the IC50 in experiment [1] and in experiment [2] was 0.501 to 5 µM throughout.

Consider `Cc1c(C[C@H](N)C[C@H]2CC2(F)F)sc2c(NCc3cccs3)cnnc12` [Compound 129, 6-[(2R)-2-amino-3-[(1S)-2,2-difluorocyclopropyl]propyl]-7-methyl-N-(thiophen-2-ylmethyl)thieno[3,2-c]pyridazin-4-amine], for which the IC50 was in the range of 5 to 10 µM in experiment [1] and 0.501 to 5 µM in experiment [2].

Consider `Cc1c([C@H](C)[C@@H](C)N)sc2c(NCc3cccs3)cnnc12` [Compound 99, 6-[(2R,3R)-3-aminobutan-2-yl]-7-methyl-N-[(thiophen-2-yl)methyl]thieno[3,2-c]pyridazin-4-amine], for which the IC50 in experiment [1] and in experiment [2] was 10 to 40 µM each time.

In the case of `C[C@H](N)C(F)(F)c1sc2c(NCc3cccs3)cnnc2c1Br` [Compound 140, 6-[(2S)-2-amino-1,1-difluoropropyl]-7-bromo-N-[(thiophen-2-yl)methyl]thieno[3,2-c]pyridazin-4-amine], the IC50 in experiment [1] and in experiment [2] was 0.501 to 5 µM throughout.

Regarding `N[C@@H](COC1CC1)Cc1sc2c(NCc3cccs3)cnnc2c1Br` [Compound 137, 6-[(2R)-2-amino-3-cyclopropoxypropyl]-7-bromo-N-[(thiophen-2-yl)methyl]thieno[3,2-c]pyridazin-4-amine], the IC50 in experiment [1] and in experiment [2] was 0.501 to 5 µM in each case.

As for `Cc1c(C[C@H](C)N)sc2c(NCc3ccsc3)cnnc12` [Compound 8, 6-[(2S)-2-aminopropyl]-7-methyl-N-[(thiophen-3-yl)methyl]thieno[3,2-c]pyridazin-4-amine], the IC50 in experiment [1] and in experiment [2] was 0.501 to 5 µM throughout.

On to `Cc1c(C[C@H](C)N)sc2c(NCc3ccc(Br)s3)cnnc12` [Compound 62, 6-[(2S)-2-aminopropyl]-N-[(5-bromothiophen-2-yl)methyl]-7-methylthieno[3,2-c]pyridazin-4-amine], for which the IC50 in experiment [1] and in experiment [2] was 5 to 10 µM in each case.

`Cc1c(CC(C)CN)sc2c(NCc3cccs3)cnnc12` (centres unmarked) [Compound 104, 6-(3-amino-2-methylpropyl)-7-methyl-N-[(thiophen-2-yl)methyl]thieno[3,2-c]pyridazin-4-amine]: the IC50 in experiment [1] and in experiment [2] was 10 to 40 µM in each case.

For `Cc1c([C@@H](C)[C@H](C)N)sc2c(NCc3cccs3)cnnc12` [Compound 25], the IC50 in experiment [1] and in experiment [2] was 10 to 40 µM throughout.

As for `Cc1c(C[C@@H](N)CO)sc2c(NCc3cccs3)cnnc12` [Compound 3, (2R)-2-amino-3-{7-methyl-4-[(thiophen-2-ylmethyl)amino]thieno[3,2-c]pyridazin-6-yl}propan-1-ol], the IC50 in experiment [1] and in experiment [2] was 0.501 to 5 µM each time.

As for `Cc1c(C[C@@H](N)CC(C)C)sc2c(NCc3ccco3)cnnc12` [Compound 20, 6-[(2S)-2-amino-4-methylpentyl]-N-[(furan-2-y1)methyl]-7-methylthieno[3,2-c]pyridazin-4-amine], the IC50 in experiment [1] and in experiment [2] was 5 to 10 µM in each case.

Turning to `Cc1c(C[C@H](C)N)sc2c(NCc3ccsc3F)cnnc12` [Compound 17, 6-[(2S)-2-aminopropyl]-N-[(2-fluorothiophen-3-y1)methyl]-7-methylthieno[3,2-c]pyridazin-4-amine], the IC50 in experiment [1] lay in the range of 5 to 10 µM; in experiment [2], 10 to 40 µM.

For `COc1nnc2c(C)c(C[C@H](C)N)sc2c1NCc1cccs1` [Compound 86, 6-[(2S)-2-aminopropyl]-3-methoxy-7-methyl-N-[(thiophen-2-yl)methyl]thieno[3,2-c]pyridazin-4-amine], the IC50 in experiment [1] and in experiment [2] was 10 to 40 µM each time.

As to `C#Cc1c(C[C@H](C)N)sc2c(NCc3ccco3)cnnc12` [Compound 115, 6-[(2S)-2-aminopropyl]-7-ethynyl-N-[(furan-2-y1)methyl]thieno[3,2-c]pyridazin-4-amine], the 50% inhibitory concentration (IC50) in experiment [1] was 1e-05 to 0.1 µM; in experiment [2], 0.101 to 0.5 µM.

Consider `Cc1c(C[C@@H](N)CO)sc2c(NCc3ccco3)cnnc12` [Compound 1, (2R)-2-amino-3-(4-{[(furan-2-yl)methyl]amino}-7-methylthieno[3,2-c]pyridazin-6-yl)propan-1-ol], for which the half-inhibitory concentration (IC50) in experiment [1] and in experiment [2] was 0.501 to 5 µM in each case.

Take `Cc1c(CC(N)=O)sc2c(NCc3cccs3)cnnc12` [Compound 105, 2-(7-methyl-4-{[(thiophen-2-yl)methyl]amino}thieno[3,2-c]pyridazin-6-yl)acetamide]: the IC50 in experiment [1] and in experiment [2] was 10 to 40 µM throughout.

With `C[C@H](N)Cc1sc2c(NCc3cccs3)cnnc2c1C#N` [Compound 24, (S)-6-(2-aminopropyl)-4-((thiophen-2-ylmethyl)amino)thieno[3,2-c]pyridazine-7-carbonitrile], the IC50 in experiment [1] and in experiment [2] was 0.501 to 5 µM throughout.

For `N[C@@H](CO)Cc1sc2c(NCc3ccco3)cnnc2c1Br` [Compound 95, (2R)-2-amino-3-(7-bromo-4-{[(furan-2-yl)methyl]amino}thieno[3,2-c]pyridazin-6-yl)propan-1-ol], the results for the IC50 in experiment [1] and in experiment [2] were 0.501 to 5 µM and 0.101 to 0.5 µM, respectively.

Consider `Cc1c([C@@H](O)[C@H](C)N)sc2c(NCc3cccs3)cnnc12` (single isomer, unassigned) [Compound 42], for which the half-maximal inhibitory concentration (IC50) in experiment [1] and in experiment [2] was 5 to 10 µM each time.

Turning to `Cc1c(C[C@H](C)N)sc2c(NCc3cncs3)cnnc12` [Compound 44, 6-[(2S)-2-aminopropyl]-7-methyl-N-[(1,3-thiazol-5-yl)methyl]thieno[3,2-c]pyridazin-4-amine], the IC50 in experiment [1] and in experiment [2] was 10 to 40 µM throughout.

For `Cc1c(C[C@H](C)N)sc2c(Nc3cccs3)cnnc12` [Compound 82, 6-[(2S)-2-aminopropyl]-7-methyl-N-(thiophen-2-yl)thieno[3,2-c]pyridazin-4-amine], the IC50 in experiment [1] and in experiment [2] was 10 to 40 µM each time.

As to `Cc1c(C[C@H](C)N)sc2c(NCc3nccs3)cnnc12` [Compound 6, 6-[(2S)-2-aminopropyl]-7-methyl-N-[(1,3-thiazol-2-yl)methyl]thieno[3,2-c]pyridazin-4-amine], the IC50 in experiment [1] and in experiment [2] was 0.501 to 5 µM throughout.

Regarding `Cc1nnc2c(C)c(C[C@H](C)N)sc2c1NCc1cccs1` [Compound 19, 6-[(2S)-2-aminopropyl]-3,7-dimethyl-N-[(thiophen-2-yl)methyl]thieno[3,2-c]pyridazin-4-amine], the concentration for half-maximal inhibition (IC50) in experiment [1] and in experiment [2] was 10 to 40 µM each time.

Consider `Cc1c(CC#N)sc2c(NCc3cccs3)cnnc12` [Compound 98, 2-{7-methyl-4-[(thiophen-2-ylmethyl)amino]thieno[3,2-c]pyridazin-6-yl}acetonitrile], for which the IC50 in experiment [1] and in experiment [2] was 10 to 40 µM in each case.

Turning to `Cc1c([C@@H](C)[C@@H](C)N)sc2c(NCc3cccs3)cnnc12` [Compound 102, 6-[(2S,3R)-3-aminobutan-2-yl]-7-methyl-N-[(thiophen-2-yl)methyl]thieno[3,2-c]pyridazin-4-amine], the IC50 in experiment [1] and in experiment [2] was 10 to 40 µM in each case.
